Laboratory results as given in patent US10066025B2, “Compositions and methods for detecting, treating and preventing diseases and disorders” (YALE UNIVERSITY, priority 2012, dated 2018).
“Also recorded” adds a separate entry of the source.

Assays:
[1] = NADH / amine oxidase activity of renalase peptides; format: biochemical; settings: 25 mM Tris, pH 7.5, 5 mM NaCl, 150 μM NADH, 37° C.
Method: Renalase isoforms Ren1-7; exons numbered from 1 to 10; RP-224: renalase peptide amino acid 224-233 of Ren1 or Ren2; RP-220; amino acids 220-239; RP-H220: histidine tagged RP-220; RP-Scr220: scrambled RP-220 (FIG. 19A). CCL-119 cells in culture treated with anti-renalase monoclonal antibody for 24 hrs; cell survival measured by the WST-1 method; n=3, *: P<0.05 (FIG. 19B). HK-2 cell treated with 2 mM H2O2 with and without renalase peptides for indicated time; LDH: lactate dehydrogenase; n=6, *: P<0.05 for Control vs. renalase peptide (FIG. 19C). HK-2 cells treated with 20 μM cisplatin with and without recombinant renalase and renalase peptides for 24 hrs, *: P<0.05, control vs. renalase peptide (FIG. 19D). Plasma creatinine levels from mice subjected to sham-surgery or to renal ischemia and reperfusion (IR); Renalase WT mice were subjected to sham-surgery or to 30 min renal IR. For mice subjected to renal IR, RP-H220 or vehicle (saline) was injected 10 min prior to renal ischemia.
Human recombinant renalase was synthesized as described (Desir et al., 2012, J Am Heart Assoc. 1:e002634). […] Renalase enzymatic activity was measured as previously described (Desir et al., 2012, J Am Heart Assoc. 1:e002634). Renalase expression was detected using an anti-renalase monoclonal antibody generated against the renalase peptide RP-220 (amino acid

[2] = test system: PI3K/AKT and MAPK pathways; assay: AKT and MAPK signaling and Bcl-2 expression by western blot; format: cell-based, human
Method: FIG. 12, comprising FIGS. 12A through 12E, is a set of images and graphs showing renalase upregulates Bcl-2, activates PI3K/AKT, ERK, p38, and inhibits JNK. Western blot analysis; P− indicates phosphorylated, activated proteins; signals normalized to GAPDH loading control, then changes in protein phosphorylation (increase=activation, decrease=inhibition) from time 0 are calculated. FIG. 12A: HK-2 and HUVEC cells incubated with renalase for 24 hrs; FIG. 12B: Western blot of time course of AKT and MAPK signaling by renalase, HK-2 cells incubated with renalase for indicated time; changes over baseline in 4c-d are significant (p<0.05); FIG. 12C: Activation of AKT(T308), AKT(5473) and ERK; FIG. 12D: Inhibition of JNK; FIG. 12E: Marked and sustained (60 min) upregulation of p38 by renalase in the presence of cisplatin, western blot for time course, REN=renalase, CP=cisplatin.
MAPK signaling by renalase and renalase peptides. Western blot analysis; ERK: Extracellular signal-Regulated Kinase 1 and 2; JNK: c-Jun N-terminal Kinases; AKT: protein kinase B; p-indicates phosphorylated, activated proteins; representative blot, n=3 (FIG. 20A). Renalase activates AKT (FIG. 20B). Western blot analysis; P− indicates phosphorylated, activated proteins Representative blot, n=3 (FIG. 20B, left panel). Signals normalized to GAPDH loading control; n=3, change over baseline statistically significant (P<0.05) from 1-60 min for ERK, p38 and AKT (T308), and at 30 min only for AKT (S473) (FIG. 20B, right panel). ERK or AKT inhibition abrogates protective effect of RP-H220 (FIG. 20C). Plasma creatinine levels from mice subjected to sham-surgery or to renal ischemia and reperfusion (IR); Renalase WT mice were subjected to sham-surgery or to 30 min renal IR. For mice subjected to renal IR, RP-H220 or vehicle (saline) was injected 10 min prior to renal ischemia. Some animals were pretreated with either the ERK inhibitor PD98059 or the PI3K/AKT inhibitor wortmanin. (N=6-8 per group). *: P<0.05 vs. vehicle-treated mice subjected to sham-surgery; #: P<0.05 vs. vehicle-treated WT mice subjected to renal IR (FIG. 20C).

cisplatin-mediated AKI = assay: Murine model of cisplatin AKI; format: in vivo, mice; settings: cisplatin + peptide; Sham 0.05±0.002, cisplatin 0.177±0.02; n=3
Method: The efficacy of recombinant renalase in treating cisplatin-induced AKI was investigated, and the mechanisms that mediate its protective action were assessed. Cisplatin (20 mg/kg) was administered by intra-peritoneal injection to either WT or renalase KO mice. The mice were sacrificed 3 days later. Blood was collected for BUN and creatinine measurements, and kidneys harvested for histologic examination, immunofluorescence (IF), and western blotting (WB). One renal pathologist, masked to the identity of the study animal, reviewed each kidney specimen. Pathologic features were scored using an ordinal rating scale (0-4; 0=none; 1=<25%, 2=26-50%; 3=51-75%; 4=76-100%) for the presence of tubular necrosis. Morphometry of renal cortex and medulla was performed using point counting technique. Points falling on injured tubules, were counted and the percentage of lesion area was calculated as percentage of total points counted
Cisplatin (15-20 mg/kg) was administered by intraperitoneal injection (IP) to either WT or renalase KO mice under brief isoflurane anesthesia. The animals were sacrificed 3 days later. […] Pathologic features were scored using an ordinal rating scale (0-4; 0=none; 1=<25%, 2=26-50%; 3=51-75%; 4=76-100%) for the presence of tubular necrosis. […] Points falling on injured tubules were counted, and the percentage of lesion area was calculated as percentage of total points counted. […]

What does the source list for “RP H220: histidine tagged RP-220, SEQ ID NO: 4, HHHHHHCIRFVSIDNKKRNIESSEIG (listed as Homo sapiens)”?
NADH or amine oxidase activity [1]: no detectable NADH or amine oxidase activity; also recorded: neither detectable oxidase activity; return of phosphorylation to baseline ([2]; HK-2 cells): ≤ 60 min; time to detectable increased phosphorylation ([2]; HK-2 cells): ≤ 1 min; JNK phosphorylation ([2]; at 60 min): decreased; creatinine measured by HPLC (cisplatin-mediated AKI): 0.085±0.007
